# Data taken from patent publication US4605662A, “1-substituted pyrrolizidine derivatives and antiarrhythmic use thereof” (Suntory Ltd., priority 1982, dated 1986).
# What was measured:
# [1] = system: ventricular flutter and fibrillation; assay: Protection against chloroform-induced ventricular arrhythmias in mice (Lawson method), subcutaneous; type: in vivo, ddy strain); conditions: 30 min before chloroform inhalation, male ddy mice; for ED50 / ED20 / ED40: Mus musculus, sc; for ED50: read-out: ED50 (95% confidence limits), antiarrhythmic activity; for ED20: read-out: ED20, antiarrhythmic activity; for ED40: read-out: ED40, antiarrhythmic activity
# Protocol: In accordance with the method described by J. W. Lawson (Journal of Pharmacology and Experimental Therapeutics, vol. 160, pp. 22, 1968), male mice of the ddy strain weighing 16 to 30 g were allowed to inhale chloroform to induce ventricular arrhythmias. At the time when they ceased to breathe, the electrocardiogram of each animal was recorded to observe the ventricular flutter and fibrillation. The abnormalities of the ventricles observed in these animals can be prevented by pretreatment with substances which have antiarrhythmic activity. The compounds of this invention were subcutaneously injected in 4-5 different doses to groups of 29 to 40 mice. Thirty minutes later, the mice were subjected to inhalation of chloroform to induce arrhythmias, and the protection by each dose against the ventricular flutter and fibrillation were expressed as percent. […]
# [2] = 50% lethal dose (LD50) by Up and Down Method in mice, and therapeutic index; type: in vivo; conditions: mouse, in vivo; Up and Down Method; male ddy mice 18 to 22 g
# Description: (§1) The 50% lethal doses (median lethal doses, LD50) were computed by the "Up and Down Method" (Pharmacological Experiment, compiled by Takagi and Ozawa, pp. 204, Nanzando, 1972) using male mice of the ddy strain weighing 18 to 22 g, and the ratios of the LD50 to ED50 values were expressed as the therapuetic indices, as presented in Table 1.
# [3] = system: male mice of the ddy strain; assay: as above; type: in vivo; conditions: LD50/ED50
# Description: as §1
SMILES,ED50 ([1]; Litchfield and Wilcoxon),ED20 [1],LD50 [2],ED40 [1],Therapeutic index (ratio of LD50 to ED50) [3],"ED50 (95% confidence limits), antiarrhythmic activity ([1]; Litchfield and Wilcoxon)"
Cc1ccccc1NC(=O)[C@@H]1CCN2CCC[C@@H]12 (relative stereo),> 100 mg/kg,100 mg/kg,> 500 mg/kg,,,
COc1cccc(NC(=O)[C@@H]2CCN3CCC[C@@H]23)c1 (relative stereo) [III],> 100 mg/kg,,> 500 mg/kg,100 mg/kg,,
COc1ccccc1NC(=O)[C@@H]1CCN2CCC[C@@H]12 (relative stereo) [II],74 mg/kg,,> 500 mg/kg,,,
COc1ccc(NC(=O)[C@@H]2CCN3CCC[C@@H]23)cc1 (relative stereo) [IV],> 100 mg/kg,100 mg/kg,> 500 mg/kg,,,
Cc1cccc(C)c1NC(=O)[C@@H]1CCN2CCC[C@@H]12 (relative stereo) [IX],29 mg/kg,,447 mg/kg,,15.4,
Cc1ccc(C)c(NC(=O)[C@@H]2CCN3CCC[C@@H]23)c1 (relative stereo) [VIII],> 100 mg/kg,100 mg/kg,> 500 mg/kg,,,
Cc1cccc(NC(=O)[C@@H]2CCN3CCC[C@@H]23)c1C (relative stereo) [VII],> 100 mg/kg,100 mg/kg,> 500 mg/kg,,,
O=C(Nc1ccccc1Br)[C@@H]1CCN2CCC[C@@H]12 (relative stereo) [VI],> 100 mg/kg,,> 500 mg/kg,100 mg/kg,,
O=C(Nc1ccccc1Cl)[C@@H]1CCN2CCC[C@@H]12 (relative stereo) [V],> 100 mg/kg,,263 mg/kg,,,100 mg/kg
O=C(Nc1c(Cl)cccc1Cl)[C@@H]1CCN2CCC[C@@H]12 (relative stereo) [XIII],38 mg/kg,,263 mg/kg,,6.92,
COc1ccc(OC)c(NC(=O)[C@@H]2CCN3CCC[C@@H]23)c1 (relative stereo) [XII],> 100 mg/kg,,> 500 mg/kg,100 mg/kg,,
O=C(Nc1c(Br)cccc1Br)[C@@H]1CCN2CCC[C@@H]12 (relative stereo) [XIV],43 mg/kg,,468 mg/kg,,10.88,
CCc1cccc(CC)c1NC(=O)[C@@H]1CCN2CCC[C@@H]12 (relative stereo) [XI],38 mg/kg,,244 mg/kg,,6.24,
Cc1cc(C)c(NC(=O)[C@@H]2CCN3CCC[C@@H]23)c(C)c1 (relative stereo) [XV],> 100 mg/kg,100 mg/kg,394 mg/kg,,,
Cc1cc(C)cc(NC(=O)[C@@H]2CCN3CCC[C@@H]23)c1 (relative stereo) [X],100 mg/kg,> 100 mg/kg,> 500 mg/kg,,,
